For two molecules, IC50 and mTor kinase inhibition results are on record in patent US8513221B2, “PI3K isoform selective inhibitors” (Xcovery Holding, LLC, priority 2008, dated 2013).

One assay addresses T1, PI3Kβ (Homo sapiens, UniProt P42338).
T1 construct: purchased Ambit Biosciences (San Diego, Calif., USA); host or cells: T7 phage in BL21-derived E. coli, or HEK-293
The experiment in a line: Ambit Biosciences kinase competition binding assay, PI3Kβ. As to conditions: read-out: inhibitory activity against other isoforms: PI3Kβ. The procedure: (§1) Assays were performed as described in Fabian et al. (2005) Nature Biotechnology, vol. 23, p. 329 and in Karaman et al. (2008) Nature Biotechnology, vol. 26, p. 127.
(§2) Kinase assays. For most assays, kinase-tagged T7 phage strains were grown in parallel in 24-well blocks in an E. coli host derived from the BL21 strain. E. coli were grown to log-phase and infected with T7 phage from a frozen stock (multiplicity of infection ˜0.1) and incubated with shaking at 32° C. until lysis (˜90 minutes). The lysates were centrifuged (6,000×g) and filtered ([…]) to remove cell debris. The remaining kinases were produced in HEK-293 cells and subsequently tagged with DNA for qPCR detection. Streptavidin-coated magnetic beads were treated with biotinylated small molecule ligands for 30 minutes at room temperature to generate affinity resins for kinase assays. The liganded beads were blocked with excess biotin and washed with blocking buffer (SeaBlock (Pierce), 1% BSA, 0.05% Tween 20, 1 mM DTT) to remove unbound ligand and to reduce non-specific phage binding. Binding reactions were assembled by combining kinases, liganded affinity beads, and test compounds in 1× binding buffer (20% SeaBlock, 0.17× PBS, 0.05% Tween 20, 6 mM DTT). Test compounds were prepared as 40× stocks in 100% DMSO and directly diluted into the assay. […] The kinase concentration in the eluates was measured by qPCR. […]

A further assay has as its target T2, PI3Kα (Homo sapiens, UniProt P42336).
T2 construct: purchased Ambit Biosciences (San Diego, Calif., USA); host or cells: T7 phage in BL21-derived E. coli, or HEK-293
As to the kind of experiment: Ambit Biosciences kinase competition binding assay, PI3Kα. The conditions noted are these: read-out: inhibitory activity against other isoforms: PI3Kα. The procedure:
as §1, §2

The next assay concerns the target T3, PI3Kδ (Homo sapiens, UniProt O00329).
T3 construct: purchased Ambit Biosciences (San Diego, Calif., USA); host or cells: T7 phage in BL21-derived E. coli, or HEK-293
T3 sequence (O00329 1-1044): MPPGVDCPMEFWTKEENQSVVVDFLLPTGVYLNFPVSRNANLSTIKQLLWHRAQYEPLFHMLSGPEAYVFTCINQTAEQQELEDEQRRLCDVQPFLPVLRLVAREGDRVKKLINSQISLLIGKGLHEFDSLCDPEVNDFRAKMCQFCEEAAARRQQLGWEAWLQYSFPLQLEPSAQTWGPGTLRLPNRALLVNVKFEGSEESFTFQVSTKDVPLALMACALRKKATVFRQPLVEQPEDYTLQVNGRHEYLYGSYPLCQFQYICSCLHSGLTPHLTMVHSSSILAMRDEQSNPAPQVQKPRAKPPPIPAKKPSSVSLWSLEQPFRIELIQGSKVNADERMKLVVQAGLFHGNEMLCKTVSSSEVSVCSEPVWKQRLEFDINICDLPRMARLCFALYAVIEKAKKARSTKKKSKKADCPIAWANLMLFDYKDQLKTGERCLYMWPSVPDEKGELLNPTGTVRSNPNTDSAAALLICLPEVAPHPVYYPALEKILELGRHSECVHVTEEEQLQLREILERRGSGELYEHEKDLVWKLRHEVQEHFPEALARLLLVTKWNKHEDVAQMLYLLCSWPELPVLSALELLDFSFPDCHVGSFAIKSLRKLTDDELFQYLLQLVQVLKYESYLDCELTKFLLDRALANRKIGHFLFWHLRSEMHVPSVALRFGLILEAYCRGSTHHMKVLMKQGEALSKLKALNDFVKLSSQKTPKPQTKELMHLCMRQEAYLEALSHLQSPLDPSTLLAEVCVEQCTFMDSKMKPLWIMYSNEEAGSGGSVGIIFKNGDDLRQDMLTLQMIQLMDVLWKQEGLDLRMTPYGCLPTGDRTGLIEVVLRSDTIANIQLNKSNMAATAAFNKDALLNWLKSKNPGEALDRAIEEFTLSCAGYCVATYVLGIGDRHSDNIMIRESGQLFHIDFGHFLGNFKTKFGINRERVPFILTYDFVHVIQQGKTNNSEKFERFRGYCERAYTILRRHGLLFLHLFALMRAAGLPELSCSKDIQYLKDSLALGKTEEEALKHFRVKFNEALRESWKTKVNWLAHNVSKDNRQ
As to the kind of experiment: Ambit Biosciences kinase competition binding assay, PI3Kδ. On the procedure:
Kinase assays. For most assays, kinase-tagged T7 phage strains were grown in parallel in 24-well blocks in an E. coli host derived from the BL21 strain. E. coli were grown to log-phase and infected with T7 phage from a frozen stock (multiplicity of infection ˜0.1) and incubated with shaking at 32° C. until lysis (˜90 minutes). The lysates were centrifuged (6,000×g) and filtered ([…]) to remove cell debris. The remaining kinases were produced in HEK-293 cells and subsequently tagged with DNA for qPCR detection. […] The liganded beads were blocked with excess biotin and washed with blocking buffer (SeaBlock (Pierce), 1% BSA, 0.05% Tween 20, 1 mM DTT) to remove unbound ligand and to reduce non-specific phage binding. […] Test compounds were prepared as 40× stocks in 100% DMSO and directly diluted into the assay. All reactions were performed in polypropylene 384-well plates in a final volume of 0.04 ml. […] The kinase concentration in the eluates was measured by qPCR.
Compounds were tested using the above assay at Ambit Biosciences (San Diego, Calif., USA).

Another assay has as its target T4, PI3Kγ (Homo sapiens, UniProt P48736).
T4 construct: purchased Ambit Biosciences (San Diego, Calif., USA); host or cells: T7 phage in BL21-derived E. coli, or HEK-293
The experiment in a line: Ambit Biosciences kinase competition binding assay, PI3Kγ. The conditions noted are these: read-out: inhibitory activity against other isoforms: PI3Kγ. The procedure: as §1, §2

For the next assay, the target named is T5, mTor (Homo sapiens, UniProt P42345).
T5 construct: purchased Invitrogen Corp. (Madison, Wis., USA)
The experiment in a line: Z′-LYTE biochemical assay for mTor. As to conditions: at up to 1 μM. On the procedure: The Z′-LYTE® biochemical assay for mTor The mTor kinase activity was assessed using the Z′-LYTE® biochemical assay of Invitrogen Corp. (Madison, Wis., USA).

The structures appear in SMILES notation. Like-named read-outs stand apart in the source and are kept apart here.

T1 sequence (P42338 whole entry): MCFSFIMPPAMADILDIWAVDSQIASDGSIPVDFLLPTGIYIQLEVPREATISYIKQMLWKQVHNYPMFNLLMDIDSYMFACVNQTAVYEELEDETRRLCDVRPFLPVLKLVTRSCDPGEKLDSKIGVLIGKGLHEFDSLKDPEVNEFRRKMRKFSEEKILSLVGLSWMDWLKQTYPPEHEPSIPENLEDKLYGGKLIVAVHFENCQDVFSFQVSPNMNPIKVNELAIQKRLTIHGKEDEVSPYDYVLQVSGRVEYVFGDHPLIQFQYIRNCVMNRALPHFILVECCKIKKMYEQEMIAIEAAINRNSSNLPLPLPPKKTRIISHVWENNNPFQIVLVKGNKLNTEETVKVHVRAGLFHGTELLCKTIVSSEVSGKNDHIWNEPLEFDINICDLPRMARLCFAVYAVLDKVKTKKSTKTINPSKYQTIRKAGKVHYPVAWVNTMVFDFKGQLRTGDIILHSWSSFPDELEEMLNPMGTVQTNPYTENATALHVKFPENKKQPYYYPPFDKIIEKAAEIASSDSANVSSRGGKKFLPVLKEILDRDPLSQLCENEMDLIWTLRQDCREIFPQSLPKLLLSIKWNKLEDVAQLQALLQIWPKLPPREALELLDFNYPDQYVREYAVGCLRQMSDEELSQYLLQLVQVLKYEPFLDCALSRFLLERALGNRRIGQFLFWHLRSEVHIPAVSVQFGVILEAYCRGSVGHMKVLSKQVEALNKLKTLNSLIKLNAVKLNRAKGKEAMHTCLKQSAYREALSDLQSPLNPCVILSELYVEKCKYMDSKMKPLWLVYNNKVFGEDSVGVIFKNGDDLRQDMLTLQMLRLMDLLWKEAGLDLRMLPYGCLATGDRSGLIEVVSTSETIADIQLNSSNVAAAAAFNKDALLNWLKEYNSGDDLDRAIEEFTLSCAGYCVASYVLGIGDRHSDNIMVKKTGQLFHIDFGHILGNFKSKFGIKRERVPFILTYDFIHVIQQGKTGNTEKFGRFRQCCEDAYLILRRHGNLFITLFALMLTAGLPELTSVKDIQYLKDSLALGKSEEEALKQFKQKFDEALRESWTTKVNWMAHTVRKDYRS
T2 sequence (P42336 whole entry): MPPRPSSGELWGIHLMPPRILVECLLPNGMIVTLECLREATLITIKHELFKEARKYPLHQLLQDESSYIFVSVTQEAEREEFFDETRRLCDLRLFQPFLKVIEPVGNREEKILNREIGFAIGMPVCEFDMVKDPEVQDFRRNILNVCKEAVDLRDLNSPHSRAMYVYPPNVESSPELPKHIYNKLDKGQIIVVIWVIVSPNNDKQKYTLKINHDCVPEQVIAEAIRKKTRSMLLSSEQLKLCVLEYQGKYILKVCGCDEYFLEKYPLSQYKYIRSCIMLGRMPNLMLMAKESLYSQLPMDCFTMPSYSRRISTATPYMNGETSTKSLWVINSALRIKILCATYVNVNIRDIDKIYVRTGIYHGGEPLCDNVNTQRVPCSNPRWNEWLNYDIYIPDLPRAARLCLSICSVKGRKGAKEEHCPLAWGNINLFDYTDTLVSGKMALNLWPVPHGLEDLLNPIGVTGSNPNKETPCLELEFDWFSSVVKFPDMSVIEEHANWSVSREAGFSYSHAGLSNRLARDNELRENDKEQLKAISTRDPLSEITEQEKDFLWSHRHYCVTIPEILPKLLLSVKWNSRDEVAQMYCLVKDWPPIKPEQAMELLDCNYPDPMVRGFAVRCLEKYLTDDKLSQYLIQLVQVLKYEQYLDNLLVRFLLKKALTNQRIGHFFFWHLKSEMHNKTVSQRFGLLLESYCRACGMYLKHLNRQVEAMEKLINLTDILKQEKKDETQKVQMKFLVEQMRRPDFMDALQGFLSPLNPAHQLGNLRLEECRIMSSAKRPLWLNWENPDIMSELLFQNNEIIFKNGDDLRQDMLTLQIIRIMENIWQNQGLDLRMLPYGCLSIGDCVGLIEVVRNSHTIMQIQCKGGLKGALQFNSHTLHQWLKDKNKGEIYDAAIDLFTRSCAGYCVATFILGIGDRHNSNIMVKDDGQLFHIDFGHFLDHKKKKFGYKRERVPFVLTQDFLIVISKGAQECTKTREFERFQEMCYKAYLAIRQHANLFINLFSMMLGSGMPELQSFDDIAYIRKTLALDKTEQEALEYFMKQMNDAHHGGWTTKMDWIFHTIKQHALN
T4 sequence (P48736 whole entry): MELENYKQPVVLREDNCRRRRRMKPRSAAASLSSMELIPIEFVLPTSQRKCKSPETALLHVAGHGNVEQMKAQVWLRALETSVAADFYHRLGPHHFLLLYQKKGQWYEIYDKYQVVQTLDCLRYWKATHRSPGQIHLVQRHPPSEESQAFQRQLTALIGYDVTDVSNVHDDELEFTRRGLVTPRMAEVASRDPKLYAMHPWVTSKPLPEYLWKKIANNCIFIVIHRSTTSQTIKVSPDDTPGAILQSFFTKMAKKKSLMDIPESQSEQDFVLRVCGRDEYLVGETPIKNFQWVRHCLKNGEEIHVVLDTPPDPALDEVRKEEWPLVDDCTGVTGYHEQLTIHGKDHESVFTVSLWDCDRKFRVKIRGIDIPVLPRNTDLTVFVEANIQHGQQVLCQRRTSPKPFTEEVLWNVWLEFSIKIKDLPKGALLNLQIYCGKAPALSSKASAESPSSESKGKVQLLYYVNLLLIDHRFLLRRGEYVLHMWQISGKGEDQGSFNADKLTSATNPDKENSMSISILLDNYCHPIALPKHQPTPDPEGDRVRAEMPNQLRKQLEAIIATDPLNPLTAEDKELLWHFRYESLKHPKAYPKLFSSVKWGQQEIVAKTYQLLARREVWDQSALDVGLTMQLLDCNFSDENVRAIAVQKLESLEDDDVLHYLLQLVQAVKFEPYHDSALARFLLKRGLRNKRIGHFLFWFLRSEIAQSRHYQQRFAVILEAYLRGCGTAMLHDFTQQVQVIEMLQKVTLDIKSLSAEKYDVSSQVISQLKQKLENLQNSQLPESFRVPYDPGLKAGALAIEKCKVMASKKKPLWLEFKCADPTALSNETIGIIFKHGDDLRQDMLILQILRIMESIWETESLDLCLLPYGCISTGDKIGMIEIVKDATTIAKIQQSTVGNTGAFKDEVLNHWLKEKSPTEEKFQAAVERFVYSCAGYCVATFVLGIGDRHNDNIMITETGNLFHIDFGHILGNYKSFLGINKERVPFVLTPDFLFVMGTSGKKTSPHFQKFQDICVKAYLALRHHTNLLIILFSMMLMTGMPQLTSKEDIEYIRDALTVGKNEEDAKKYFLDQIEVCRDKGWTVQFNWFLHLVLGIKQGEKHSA

`CS(=O)(=O)N1CCN(CCn2cnc3c(-n4c(C(F)F)nc5ccccc54)nc(N4CCOCC4)nc32)CC1` [Example 14, 6-(2-difluoromethyl-benzoimidazol-1-yl)-9-[2-(4-methanesulfonyl-piperazin-1-yl)-ethyl]-2-morpholin-4-yl-9H-purine]: the IC50 at PI3Kβ was above 100 nM; at PI3Kα, above 100 nM; on PI3Kδ (read-out: inhibition against PI3Kδ (IC50)) it was below 30 nM; on PI3Kγ, above 100 nM.

With `OCCn1cnc2c(-n3c(C(F)F)nc4ccccc43)nc(N3CCOCC3)nc21` [Example 28, 2-{6-[2-(difluoromethyl)benzimidazol-1-yl]-2-morpholin-4-ylpurin-9-yl}ethan-1-ol], on mTor, the mTor kinase inhibition result is on record as “did not significantly inhibit”. For the same molecule, the IC50 is above 100 nM on PI3Kβ, above 100 nM at PI3Kα, below 30 nM on PI3Kδ and above 100 nM at PI3Kγ.
